Data as given in ChEMBL document CHEMBL1201862, “PubChem BioAssay data set” (2004).
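Each compound was tested at five concentrations against cells in 96-well plates for 48 hours. At the GI50, growth is halved.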 Calls of active or inactive are those of the source. Cut-off read from the data, not from the text of the source: active = GI50 up to about 1.1 µM and inactive = higher.

Assays:
Experiment in all cases: NCI tumour cell line growth inhibition, 48 h
[1] = system: NCI-H23
[2] = system: HL-60
[3] = system: A549
[4] = system: SF-539
[5] = system: SF-295
[6] = system: EKVX
[7] = system: SK-OV-3
[8] = system: ACHN
[9] = system: MDA-N
[10] = system: BT-549
[11] = system: COLO 205
[12] = system: NCI/ADR-RES
[13] = system: SR
[14] = system: SK-MEL-28
[15] = system: A498
[16] = system: K562
[17] = system: PC-3
[18] = system: UACC-257
[19] = system: SN12C

**Q.** Which results are given for `CN(CCCNC(=O)c1cn(C)c2c1Cc1ccccc1-2)CCCNC(=O)c1cn(C)c2c1Cc1ccccc1-2`?
**A.** GI50 [1]: 14.2 µM (inactive); GI50 [2]: 13.3 µM (inactive); GI50 [3]: 15.8 µM (inactive); GI50 [4]: 13.8 µM (inactive); GI50 [5]: 12.3 µM (inactive); GI50 [6]: 9.4 µM (inactive); GI50 [7]: 16.5 µM (inactive); GI50 [8]: 10.5 µM (inactive); GI50 [9]: 3.58 µM (inactive); GI50 [10]: 17.1 µM (inactive); GI50 [11]: 1.9 µM (inactive); GI50 [12]: 12.5 µM (inactive); GI50 [13]: 1.45 µM (inactive); GI50 [14]: 10.8 µM (inactive); GI50 [15]: 11.9 µM (inactive); GI50 [16]: 2.78 µM (inactive); GI50 [17]: 10.8 µM (inactive); GI50 [18]: 6.12 µM (inactive); GI50 [19]: 13.4 µM (inactive)

**Q.** `CN(C)c1ccc(/C=N/c2ccc(-c3nc4ccccc4s3)cc2)cc1` was tested. Which GI50 [1] did it give?
**A.** 29.9 µM (inactive)

**Q.** What about the GI50 [2] of the same compound?
**A.** 0.0408 µM (active)

**Q.** What about the GI50 [3] of the same compound?
**A.** 39.7 µM (inactive)

**Q.** And the GI50 [4]?
**A.** 52.8 µM (inactive)

**Q.** And the GI50 [5]?
**A.** 4.54 µM (inactive)

**Q.** What about the GI50 [6] of the same compound?
**A.** 24.6 µM (inactive)

**Q.** And the GI50 [7]?
**A.** 36.8 µM (inactive)

**Q.** What about the GI50 [8] of the same compound?
**A.** 17.4 µM (inactive)

**Q.** And the GI50 [9]?
**A.** 34.5 µM (inactive)

**Q.** And the GI50 [10]?
**A.** 35.4 µM (inactive)

**Q.** What about the GI50 [11] of the same compound?
**A.** 23.1 µM (inactive)

**Q.** And the GI50 [12]?
**A.** 28.9 µM (inactive)

**Q.** And the GI50 [13]?
**A.** 36.3 µM (inactive)

**Q.** And the GI50 [14]?
**A.** 48.9 µM (inactive)

**Q.** And the GI50 [15]?
**A.** 10.2 µM (inactive)

**Q.** And the GI50 [16]?
**A.** 28.8 µM (inactive)

**Q.** And the GI50 [17]?
**A.** 22.4 µM (inactive)

**Q.** What about the GI50 [18] of the same compound?
**A.** 28 µM (inactive)

**Q.** What about the GI50 [19] of the same compound?
**A.** 36.1 µM (inactive)

**Q.** For `Cc1ccc(/N=N\c2c(O)c(S(=O)(=O)O)cc3cc(S(=O)(=O)O)ccc23)c(C)c1`, which GI50 [1] is on record?
**A.** > 100 µM (inactive)

**Q.** And the GI50 [2]?
**A.** > 100 µM (inactive)

**Q.** What about the GI50 [3] of the same compound?
**A.** > 100 µM (inactive)

**Q.** And the GI50 [4]?
**A.** > 100 µM (inactive)

**Q.** What about the GI50 [5] of the same compound?
**A.** > 100 µM (inactive)

**Q.** What about the GI50 [6] of the same compound?
**A.** > 100 µM (inactive)

**Q.** What about the GI50 [7] of the same compound?
**A.** > 100 µM (inactive)

**Q.** And the GI50 [8]?
**A.** > 100 µM (inactive)

**Q.** What about the GI50 [9] of the same compound?
**A.** > 100 µM (inactive)

**Q.** What about the GI50 [10] of the same compound?
**A.** > 100 µM (inactive)

**Q.** And the GI50 [11]?
**A.** > 100 µM (inactive)

**Q.** What about the GI50 [12] of the same compound?
**A.** > 100 µM (inactive)

**Q.** What about the GI50 [13] of the same compound?
**A.** > 100 µM (inactive)

**Q.** And the GI50 [14]?
**A.** > 100 µM (inactive)

**Q.** What about the GI50 [15] of the same compound?
**A.** > 100 µM (inactive)

**Q.** And the GI50 [16]?
**A.** > 100 µM (inactive)

**Q.** What about the GI50 [17] of the same compound?
**A.** > 100 µM (inactive)

**Q.** What about the GI50 [18] of the same compound?
**A.** > 100 µM (inactive)

**Q.** And the GI50 [19]?
**A.** > 100 µM (inactive)

**Q.** How did the GI50 [1] turn out when `CCCCOCCOC1=CC(=O)c2c(O)ccc(O)c2C1=O` was run?
**A.** 1.7 µM (inactive)

**Q.** What about the GI50 [2] of the same compound?
**A.** 0.506 µM (active)

**Q.** And the GI50 [3]?
**A.** 1.75 µM (inactive)

**Q.** What about the GI50 [4] of the same compound?
**A.** 1.58 µM (inactive)

**Q.** And the GI50 [5]?
**A.** 1.66 µM (inactive)

**Q.** And the GI50 [6]?
**A.** 1.69 µM (inactive)

**Q.** And the GI50 [7]?
**A.** > 10 µM (inactive)

**Q.** What about the GI50 [8] of the same compound?
**A.** 1.72 µM (inactive)

**Q.** And the GI50 [9]?
**A.** 0.185 µM (active)

**Q.** And the GI50 [10]?
**A.** 1.63 µM (inactive)

**Q.** What about the GI50 [11] of the same compound?
**A.** 1.14 µM (inactive)

**Q.** What about the GI50 [12] of the same compound?
**A.** 2.12 µM (inactive)

**Q.** And the GI50 [13]?
**A.** 1.24 µM (inactive)

**Q.** And the GI50 [14]?
**A.** 1.62 µM (inactive)

**Q.** What about the GI50 [15] of the same compound?
**A.** 1.64 µM (inactive)

**Q.** And the GI50 [16]?
**A.** 2 µM (inactive)

**Q.** What about the GI50 [17] of the same compound?
**A.** 2.59 µM (inactive)

**Q.** What about the GI50 [18] of the same compound?
**A.** 1.03 µM (active)

**Q.** What about the GI50 [19] of the same compound?
**A.** 1.66 µM (inactive)

**Q.** `CCC(O)CC1OC2(CCC1C)CC1OC(=O)/C=C\C(C)(O)C(O)C(C)C(O)C(OC3CC(OC)C(O)C(C)O3)C(O)C(C)(O)CCC/C=C/C3CC(C)COC3(O)CC(O2)C1C` (stereo not drawn) was tested. Which GI50 [1] did it give?
**A.** < 0.0176 µM (active)

**Q.** And the GI50 [2]?
**A.** < 0.0199 µM (active)

**Q.** What about the GI50 [3] of the same compound?
**A.** < 0.0214 µM (active)

**Q.** And the GI50 [4]?
**A.** 17.3 µM (inactive)

**Q.** What about the GI50 [5] of the same compound?
**A.** < 0.016 µM (active)

**Q.** What about the GI50 [6] of the same compound?
**A.** < 0.01 µM (active)

**Q.** And the GI50 [7]?
**A.** 26.6 µM (inactive)

**Q.** And the GI50 [8]?
**A.** 7.24 µM (inactive)

**Q.** And the GI50 [9]?
**A.** 2.05 µM (inactive)

**Q.** And the GI50 [10]?
**A.** 3.66 µM (inactive)

**Q.** What about the GI50 [11] of the same compound?
**A.** 0.237 µM (active)

**Q.** What about the GI50 [12] of the same compound?
**A.** 1.67 µM (inactive)

**Q.** And the GI50 [13]?
**A.** 19.9 µM (inactive)

**Q.** What about the GI50 [14] of the same compound?
**A.** 13.8 µM (inactive)

**Q.** What about the GI50 [15] of the same compound?
**A.** 3.82 µM (inactive)

**Q.** What about the GI50 [16] of the same compound?
**A.** < 0.01 µM (active)

**Q.** What about the GI50 [17] of the same compound?
**A.** < 0.0251 µM (active)

**Q.** And the GI50 [18]?
**A.** < 0.01 µM (active)

**Q.** What about the GI50 [19] of the same compound?
**A.** 15.7 µM (inactive)

**Q.** With `Cc1cc2nc3c(C#N)c4c(c(-c5ccc(Cl)cc5)n3c2cc1C)CCC4` as the compound, how does the GI50 [1] read?
**A.** 19.1 µM (inactive)

**Q.** And the GI50 [2]?
**A.** 21.4 µM (inactive)

**Q.** And the GI50 [3]?
**A.** 34.5 µM (inactive)

**Q.** And the GI50 [4]?
**A.** 29.2 µM (inactive)

**Q.** What about the GI50 [5] of the same compound?
**A.** 17.2 µM (inactive)

**Q.** What about the GI50 [6] of the same compound?
**A.** 24.2 µM (inactive)

**Q.** And the GI50 [7]?
**A.** 18.2 µM (inactive)

**Q.** And the GI50 [8]?
**A.** 24.2 µM (inactive)

**Q.** And the GI50 [9]?
**A.** 28.8 µM (inactive)

**Q.** And the GI50 [10]?
**A.** 20.4 µM (inactive)

**Q.** What about the GI50 [11] of the same compound?
**A.** 19.8 µM (inactive)

**Q.** And the GI50 [12]?
**A.** 41.1 µM (inactive)

**Q.** What about the GI50 [13] of the same compound?
**A.** 23.8 µM (inactive)

**Q.** And the GI50 [14]?
**A.** 23.7 µM (inactive)

**Q.** And the GI50 [15]?
**A.** 28.1 µM (inactive)

**Q.** And the GI50 [16]?
**A.** 23.1 µM (inactive)

**Q.** What about the GI50 [17] of the same compound?
**A.** 29.2 µM (inactive)

**Q.** What about the GI50 [18] of the same compound?
**A.** 21.4 µM (inactive)

**Q.** What about the GI50 [19] of the same compound?
**A.** 30.3 µM (inactive)

**Q.** Which results are given for `COc1ccc2c(c1)C(=O)[C@@](Nc1ccc(C=O)cc1)(OC)[C@@](OC)(c1ccc([N+](=O)[O-])cc1)O2`?
**A.** GI50 [1]: > 10 µM (inactive); GI50 [2]: > 10 µM (inactive); GI50 [3]: 7.67 µM (inactive); GI50 [4]: > 10 µM (inactive); GI50 [5]: > 10 µM (inactive); GI50 [6]: > 10 µM (inactive); GI50 [7]: > 10 µM (inactive); GI50 [8]: > 10 µM (inactive); GI50 [9]: > 10 µM (inactive); GI50 [10]: > 10 µM (inactive); GI50 [11]: > 10 µM (inactive); GI50 [12]: > 10 µM (inactive); GI50 [13]: > 10 µM (inactive); GI50 [14]: > 10 µM (inactive); GI50 [15]: > 10 µM (inactive); GI50 [16]: > 10 µM (inactive); GI50 [17]: 8.53 µM (inactive); GI50 [18]: > 10 µM (inactive); GI50 [19]: > 10 µM (inactive)
